For this series the following is noted: for aqueous solubility: pH 6.8.

Converted amounts (≈) assume the structure as drawn.

As for `Cc1cccnc1CNC(=O)c1ccc(Cl)s1`, the intrinsic clearance, human liver microsomes worked out at 39.6 mL/min/kg and the intrinsic clearance, rat liver microsomes was 399 mL/min/kg.

In the case of `Cc1noc2ncnc(N3CCCN(C(=O)C4CC4)CC3)c12`, the MDR1-MDCK efflux ratio is 21.2; the intrinsic clearance, human liver microsomes was found to be 6.43 mL/min/kg; the intrinsic clearance, rat liver microsomes amounted to 149 mL/min/kg.

`Cc1ccc(-c2nc(CN3C(=O)C(=O)N(C4CCCC4)C3=O)cs2)cc1`: the MDR1-MDCK efflux ratio is 0.789 and the aqueous solubility stood at 0.26 µg/mL (≈ 0.704 µM).

Take `N#CCc1ccc(OCc2ccncc2)cc1`: the intrinsic clearance, human liver microsomes is 53.3 mL/min/kg and the intrinsic clearance, rat liver microsomes was 373 mL/min/kg.

`CSc1cccc(-c2ccccc2-c2nnc(C)o2)c1`: the MDR1-MDCK efflux ratio was 0.652; the intrinsic clearance, human liver microsomes was found to be 145 mL/min/kg; the intrinsic clearance, rat liver microsomes is 2460 mL/min/kg; the aqueous solubility is 41.5 µg/mL (≈ 147 µM).

`Cc1nc(NCc2ccc(F)cc2)n(C)n1`: the MDR1-MDCK efflux ratio worked out at 0.975; the intrinsic clearance, human liver microsomes was at most 4.74 mL/min/kg; the intrinsic clearance, rat liver microsomes is at most 10.7 mL/min/kg.

Regarding `CC(C)N(C[C@@H]1O[C@@H](n2cnc3c(N)ncnc32)[C@H](O)[C@H]1O)[C@H]1C[C@@H](CCc2nc3cc(C(C)(C)C)ccc3[nH]2)C1`, the MDR1-MDCK efflux ratio came to 3.45; the intrinsic clearance, human liver microsomes came out at 146 mL/min/kg; the intrinsic clearance, rat liver microsomes is 835 mL/min/kg.

For `CCc1noc(-c2ccc(CCN)cc2)n1`, the MDR1-MDCK efflux ratio was determined as 0.479; the intrinsic clearance, human liver microsomes worked out at 394 mL/min/kg; the intrinsic clearance, rat liver microsomes came to 54.5 mL/min/kg; the aqueous solubility was 44.1 µg/mL (≈ 203 µM).

Consider `COc1cc(-c2ccc(C)s2)cc2c1OCCN(c1noc(C)n1)C2`, for which the intrinsic clearance, human liver microsomes came to 57.4 mL/min/kg; the intrinsic clearance, rat liver microsomes amounted to 940 mL/min/kg; the aqueous solubility was 3.01 µg/mL (≈ 8.42 µM).

Turning to `COC(=O)C1=NOC2(CCN(CCCCCF)CC2)C1`, the MDR1-MDCK efflux ratio stood at 0.463; the intrinsic clearance, human liver microsomes turned out to be 199 mL/min/kg; the intrinsic clearance, rat liver microsomes stood at 713 mL/min/kg.

Turning to `Cc1nc2n(c1CN1CCN(c3ncccn3)CC1)CCCC2`, the MDR1-MDCK efflux ratio is 7.45; the intrinsic clearance, human liver microsomes was found to be 29.1 mL/min/kg; the intrinsic clearance, rat liver microsomes stood at 1180 mL/min/kg.

With `Cc1ccc(=O)n(CC2(O)CCN(Cc3ccc4ccccc4n3)CC2)n1`, the intrinsic clearance, human liver microsomes was at most 4.74 mL/min/kg and the intrinsic clearance, rat liver microsomes amounted to 90.1 mL/min/kg.

Take `CN(Cc1ccccc1)C(=O)c1ccc(-n2cccn2)nc1`: the MDR1-MDCK efflux ratio was 0.566; the intrinsic clearance, human liver microsomes was at most 4.74 mL/min/kg; the intrinsic clearance, rat liver microsomes was 4990 mL/min/kg; the aqueous solubility amounted to 38.8 µg/mL (≈ 133 µM).

`CCCn1cc(CNc2ncccn2)cn1` returned an intrinsic clearance, human liver microsomes of at most 4.74 mL/min/kg and an intrinsic clearance, rat liver microsomes of 56.5 mL/min/kg.

Regarding `CC(=O)Nc1ccc(C(=O)N2CCCCC2c2nc(N)ncc2-c2cccc(Cl)c2)cc1` (configuration not stated), the MDR1-MDCK efflux ratio was 98; the fraction unbound, human plasma worked out at 0.0331; the fraction unbound, rat plasma was determined as 0.0384; the intrinsic clearance, human liver microsomes was 53.3 mL/min/kg. Besides, the intrinsic clearance, rat liver microsomes was found to be 651 mL/min/kg and the aqueous solubility stood at 57.5 µg/mL (≈ 128 µM).

On to `Cc1cc(Nc2ccc(F)cn2)cc(C2CCN(C(=O)COc3ccccc3)C2)n1` (configuration not stated), for which the MDR1-MDCK efflux ratio worked out at 15.5; the intrinsic clearance, human liver microsomes was 106 mL/min/kg; the intrinsic clearance, rat liver microsomes is 664 mL/min/kg.

With `CN(C)c1cncc(-c2ccc(C(=O)NC(C)(C)C)cc2)n1`, the MDR1-MDCK efflux ratio was 0.697; the intrinsic clearance, human liver microsomes was found to be 18.7 mL/min/kg; the intrinsic clearance, rat liver microsomes was found to be 483 mL/min/kg.

For the molecule `N#CCSCC(=O)NC1CCCCCC1`, the MDR1-MDCK efflux ratio worked out at 0.743; the intrinsic clearance, human liver microsomes is at most 4.74 mL/min/kg; the intrinsic clearance, rat liver microsomes came out at 38.2 mL/min/kg; the aqueous solubility was 44.8 µg/mL (≈ 198 µM).

Consider `Cc1cc2ncn(CC(=O)NC(C)(C)C)c2cc1C`, for which the MDR1-MDCK efflux ratio worked out at 5.53; the intrinsic clearance, human liver microsomes is at most 4.74 mL/min/kg; the intrinsic clearance, rat liver microsomes was determined as 70.1 mL/min/kg; the aqueous solubility turned out to be 39.1 µg/mL (≈ 151 µM).

Consider `Cn1cc(CCNC(=O)N2CCCc3c(F)cccc32)cn1`, for which the MDR1-MDCK efflux ratio amounted to 1.71; the intrinsic clearance, human liver microsomes was determined as 25.2 mL/min/kg; the intrinsic clearance, rat liver microsomes is 230 mL/min/kg; the aqueous solubility was determined as 42.5 µg/mL (≈ 141 µM).

As to `Cn1cnnc1-c1cccc(NS(=O)(=O)c2ccc3c(c2)OCCCO3)c1`, the MDR1-MDCK efflux ratio was determined as 79.6; the intrinsic clearance, human liver microsomes was found to be 56.6 mL/min/kg; the intrinsic clearance, rat liver microsomes was determined as 180 mL/min/kg.

As to `N[C@H](Cc1c[nH]c2ccccc12)C(=O)N/N=C/c1ccc2nccnc2c1`, the MDR1-MDCK efflux ratio came out at 13.4; the intrinsic clearance, human liver microsomes stood at 17.2 mL/min/kg; the intrinsic clearance, rat liver microsomes came out at 55.8 mL/min/kg; the aqueous solubility turned out to be 40.3 µg/mL (≈ 112 µM).

Take `O=C(O)c1cc(/C=C/c2csnn2)nc2ccccc12`: the MDR1-MDCK efflux ratio is 2.08; the intrinsic clearance, human liver microsomes is at most 4.74 mL/min/kg; the intrinsic clearance, rat liver microsomes was at most 10.7 mL/min/kg; the aqueous solubility was found to be 15.7 µg/mL (≈ 55.4 µM).

With `OCCC1(CNc2ncc(Br)cn2)CC1`, the MDR1-MDCK efflux ratio is 0.674; the intrinsic clearance, human liver microsomes was found to be 8.65 mL/min/kg; the intrinsic clearance, rat liver microsomes amounted to 81.9 mL/min/kg.

In the case of `CN1C(=O)CCc2cc(NC(=O)C(C)(C)c3ccccc3F)ccc21`, the intrinsic clearance, human liver microsomes came out at 29.3 mL/min/kg; the intrinsic clearance, rat liver microsomes was 362 mL/min/kg; the aqueous solubility worked out at 80.8 µg/mL (≈ 237 µM).

As to `CC(C)c1nc(O)c2nnn(C[C@@H]3CCCN(C(=O)C(C)(C)C)C3)c2n1`, the MDR1-MDCK efflux ratio turned out to be 34.4; the intrinsic clearance, human liver microsomes worked out at 29.4 mL/min/kg; the intrinsic clearance, rat liver microsomes was 281 mL/min/kg; the aqueous solubility was 43.9 µg/mL (≈ 122 µM).

`Oc1ccc2nc(/C=C/c3csnn3)ccc2c1Cl`: the MDR1-MDCK efflux ratio amounted to 0.069; the intrinsic clearance, human liver microsomes came to 99.4 mL/min/kg; the intrinsic clearance, rat liver microsomes is 240 mL/min/kg.

As for `CN1CCCn2c1cc(OCc1cc(F)c(Oc3ccc(C(F)(F)F)nc3)c(F)c1)nc2=O`, the MDR1-MDCK efflux ratio was 12; the intrinsic clearance, human liver microsomes amounted to 19.6 mL/min/kg; the intrinsic clearance, rat liver microsomes is 126 mL/min/kg.

On to `CCOC(=O)c1cc2ccccc2n1CC(=O)c1ccc(F)cc1`, for which the MDR1-MDCK efflux ratio came to 0.662; the intrinsic clearance, human liver microsomes amounted to 756 mL/min/kg; the intrinsic clearance, rat liver microsomes stood at 1890 mL/min/kg; the aqueous solubility is 6.56 µg/mL (≈ 20.2 µM).

Turning to `CN(Cc1n[nH]c2c1CCCC2)c1nccnc1C#N`, the MDR1-MDCK efflux ratio amounted to 1.01; the intrinsic clearance, human liver microsomes was 39.6 mL/min/kg; the intrinsic clearance, rat liver microsomes was 1140 mL/min/kg; the aqueous solubility came to 20.5 µg/mL (≈ 76.4 µM).

As for `c1ccc(Cc2ccccc2-c2nnc(-c3cccnc3)o2)cc1`, the MDR1-MDCK efflux ratio was determined as 0.45 and the aqueous solubility came out at 0.22 µg/mL (≈ 0.702 µM).

`O=C(Nc1cccc(Cl)c1F)c1cccc(N2CCCC2=O)c1` displayed an intrinsic clearance, human liver microsomes of 82.8 mL/min/kg; an intrinsic clearance, rat liver microsomes of 894 mL/min/kg; an aqueous solubility of 3.4 µg/mL (≈ 10.2 µM).

As to `O=C(CSCCCn1c(=O)[nH]c2ccccc21)N1CCCCC1`, the intrinsic clearance, human liver microsomes came to 68.3 mL/min/kg; the intrinsic clearance, rat liver microsomes came out at 760 mL/min/kg; the aqueous solubility was determined as 59.6 µg/mL (≈ 179 µM).

Take `c1ccn2cc(CSc3ccc(-n4cccn4)nn3)nc2c1`: the MDR1-MDCK efflux ratio was 0.732; the intrinsic clearance, human liver microsomes was 18.6 mL/min/kg; the intrinsic clearance, rat liver microsomes was found to be 630 mL/min/kg.

For the molecule `Cc1nn(C)c(C)c1CCC(=O)N1CCCc2ncccc21`, the MDR1-MDCK efflux ratio came out at 22.7; the intrinsic clearance, human liver microsomes came out at 79.9 mL/min/kg; the intrinsic clearance, rat liver microsomes turned out to be 449 mL/min/kg; the aqueous solubility stood at 54.2 µg/mL (≈ 182 µM).

As for `Cc1c(CN2CCC(Nc3ncnc4sc(CC(F)(F)F)cc34)CC2)ccc2c1cc(C#N)n2Cc1cn[nH]c1`, the MDR1-MDCK efflux ratio came out at 14.1; the intrinsic clearance, human liver microsomes turned out to be 136 mL/min/kg; the intrinsic clearance, rat liver microsomes was found to be 105 mL/min/kg; the aqueous solubility is 3.23 µg/mL (≈ 5.72 µM).

In the case of `O=C(Nc1nc2ccccc2[nH]1)c1cc(Cl)ccc1Cl`, the aqueous solubility was found to be 0.55 µg/mL (≈ 1.8 µM).

Turning to `COc1ccc2nc(C(=O)Nc3cnc4c(cnn4C(C)C)c3)ccc2c1`, the MDR1-MDCK efflux ratio amounted to 0.464 and the aqueous solubility was 0.15 µg/mL (≈ 0.415 µM).

Turning to `Cn1c(=O)n(Cc2cccc(OC(F)F)c2)c2cnccc21`, the MDR1-MDCK efflux ratio was found to be 1.34; the intrinsic clearance, human liver microsomes is 10.4 mL/min/kg; the intrinsic clearance, rat liver microsomes turned out to be 209 mL/min/kg; the aqueous solubility amounted to 49.1 µg/mL (≈ 161 µM).

For the molecule `O=C(Nc1ccccc1)N1CCCc2cnc(N3CCOCC3)nc21`, the MDR1-MDCK efflux ratio came to 1.22; the intrinsic clearance, human liver microsomes was at most 4.74 mL/min/kg; the intrinsic clearance, rat liver microsomes was 116 mL/min/kg; the aqueous solubility stood at 5.86 µg/mL (≈ 17.3 µM).

For `Cn1cncc1-c1ncccc1C(=O)N1CCCC1`, the MDR1-MDCK efflux ratio was 17.3; the intrinsic clearance, human liver microsomes was at most 4.74 mL/min/kg; the intrinsic clearance, rat liver microsomes is at most 10.7 mL/min/kg; the aqueous solubility stood at 54.2 µg/mL (≈ 211 µM).

With `Cc1cccc(COc2cccc(/C=C3\C(=O)NN(c4ccccc4)C3=O)c2)c1`, the intrinsic clearance, human liver microsomes was found to be 66.3 mL/min/kg; the intrinsic clearance, rat liver microsomes amounted to 294 mL/min/kg; the aqueous solubility stood at 5.16 µg/mL (≈ 13.4 µM).

`CSc1ccc(C(=O)Nc2cccc(C(=O)NCC(C)C)c2)cc1`: the MDR1-MDCK efflux ratio came to 1.59; the intrinsic clearance, human liver microsomes turned out to be 119 mL/min/kg; the intrinsic clearance, rat liver microsomes was 2660 mL/min/kg.

Turning to `O=C(O)c1ccc(CCC(=O)N2CCc3c(F)cc(F)cc3C2)cc1`, the MDR1-MDCK efflux ratio came to 4.05; the intrinsic clearance, human liver microsomes was at most 4.74 mL/min/kg; the intrinsic clearance, rat liver microsomes is at most 10.7 mL/min/kg.

Consider `Cc1ccsc1C(=O)Nc1nc2ccccc2s1`, for which the MDR1-MDCK efflux ratio turned out to be 0.136 and the aqueous solubility stood at 0.29 µg/mL (≈ 1.06 µM).

In the case of `CC(C)(C)C(=O)N1CCC(Cc2ccc(-c3cccs3)cc2)(C(=O)N2CCCC2)CC1`, the MDR1-MDCK efflux ratio was 0.998; the fraction unbound, human plasma amounted to 0.00655; the fraction unbound, rat plasma was 0.0102; the intrinsic clearance, human liver microsomes turned out to be 223 mL/min/kg. In addition, the intrinsic clearance, rat liver microsomes was 1440 mL/min/kg and the aqueous solubility came to 23 µg/mL (≈ 52.4 µM).

As for `CN1C(=O)N[C@H](Cc2c[nH]c3c(Cl)cccc23)C1=O`, the intrinsic clearance, human liver microsomes worked out at 8.58 mL/min/kg and the intrinsic clearance, rat liver microsomes turned out to be 77.1 mL/min/kg.

For orientation: aqueous solubility means the concentration that dissolves in the medium under given conditions. Low values mean a poorly soluble substance, high ones a readily soluble substance.

For the origin of these results see the Biogen ADME set (Fang et al. 2023).
